Legend:
Format in all cases: cell membranes
[1] = target: Kappa-type opioid receptor (Homo sapiens, UniProt P41145); assay: Displacement of [3H]U-69593 from human KOR extracted from HEK293 cell membrane assessed as inhibition constant
[2] = target: Delta-type opioid receptor (Homo sapiens, UniProt P41143); assay: Displacement of [3H]DPDPE from human DOR extracted from HEK293 cell membrane assessed as inhibition constant
Mu-type opioid receptor = Mu-type opioid receptor (Homo sapiens, UniProt P35372); assay: Displacement of [3H]-DAMGO from human MOR extracted from HEK293 cell membrane assessed as inhibition constant
Chain of Mu-type opioid receptor (P35372 whole entry): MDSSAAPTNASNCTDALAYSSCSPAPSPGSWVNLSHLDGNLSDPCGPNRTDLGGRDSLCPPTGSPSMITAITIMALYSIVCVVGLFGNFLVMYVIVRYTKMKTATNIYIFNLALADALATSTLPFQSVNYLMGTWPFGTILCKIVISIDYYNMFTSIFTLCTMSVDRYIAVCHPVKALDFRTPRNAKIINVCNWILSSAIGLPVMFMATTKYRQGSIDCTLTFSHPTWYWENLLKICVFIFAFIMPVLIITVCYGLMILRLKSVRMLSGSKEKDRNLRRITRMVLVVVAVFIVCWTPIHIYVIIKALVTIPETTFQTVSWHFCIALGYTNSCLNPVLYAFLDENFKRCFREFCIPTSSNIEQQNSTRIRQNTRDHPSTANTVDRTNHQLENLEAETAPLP

Chain of Delta-type opioid receptor (P41143 whole entry): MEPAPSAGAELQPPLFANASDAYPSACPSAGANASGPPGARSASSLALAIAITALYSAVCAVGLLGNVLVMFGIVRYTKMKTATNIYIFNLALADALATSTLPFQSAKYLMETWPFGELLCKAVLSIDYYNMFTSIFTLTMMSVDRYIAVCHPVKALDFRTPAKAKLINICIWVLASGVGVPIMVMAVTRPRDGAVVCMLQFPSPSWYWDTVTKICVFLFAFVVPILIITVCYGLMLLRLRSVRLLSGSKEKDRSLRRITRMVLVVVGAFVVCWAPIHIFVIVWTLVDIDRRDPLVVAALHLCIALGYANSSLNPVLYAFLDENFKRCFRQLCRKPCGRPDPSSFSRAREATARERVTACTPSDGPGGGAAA
Chain of Kappa-type opioid receptor (P41145 whole entry): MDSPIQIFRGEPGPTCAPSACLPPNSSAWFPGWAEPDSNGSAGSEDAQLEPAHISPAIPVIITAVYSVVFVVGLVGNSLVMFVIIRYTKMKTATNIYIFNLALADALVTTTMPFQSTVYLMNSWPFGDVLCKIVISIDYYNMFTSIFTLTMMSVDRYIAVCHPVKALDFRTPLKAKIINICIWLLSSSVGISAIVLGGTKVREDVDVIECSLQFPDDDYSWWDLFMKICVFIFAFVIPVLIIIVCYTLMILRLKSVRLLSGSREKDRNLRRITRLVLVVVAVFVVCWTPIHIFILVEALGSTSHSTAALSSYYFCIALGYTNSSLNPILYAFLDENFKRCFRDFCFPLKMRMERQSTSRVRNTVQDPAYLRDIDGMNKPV

Compound | Ki [1] [nM] | Ki [2] [nM] | Ki (Mu-type opioid receptor) [nM]
O=C1CC[C@@]23C4Cc5ccc(O)c6c5[C@@]2(CCN3CN4CCc2ccccc2)C1O6 (some centres undefined) | 5.2 | 25 | 22
C[C@@H](O)C[C@H]1NC2Cc3ccc(O)c4c3[C@]35CCN1[C@]23CCC(=O)C5O4 (some centres undefined) | 390 | 620 | 69
N[C@@]12CCC(=O)C3Oc4c(O)ccc5c4[C@@]31CCN(CC1CC1)C2C5 (some centres undefined) | 1.8 | 19 | 0.82
O=C1CC[C@]23C4[C@@H](CN(CC5CC5)C[N@@]42)[C@]32c3cccc(O)c3OC12 (some centres undefined) | 21 | 64 | 20
C[C@H](O)C[C@H]1NC2Cc3ccc(O)c4c3[C@]35CCN1[C@]23CCC(=O)C5O4 (some centres undefined) | 120 | 320 | 57
CC(=O)C(C(C)=O)=C1N(CC2CC2)C2Cc3ccc(O)c4c3[C@]35CCN1[C@]23CCC(=O)C5O4 (some centres undefined) | 1400 | 1300 | 690
CC(=O)/C=C1/NC2Cc3ccc(O)c4c3[C@]35CCN1[C@]23CCC(=O)C5O4 (some centres undefined) | 310 | > 10000 | 380
CN1CN2CC[C@]34c5c6ccc(O)c5OC3C(=O)CC[C@]24C1C6 (some centres undefined) | 310 | 160 | 150
